Reference: patent US12017994B2 (SYMBERIX, INC., priority 2017, dated 2024)
Where “and” joins values, the source holds several entries; their conditions need not be identical. Equal entries are not always repeated. Entries after “also recorded” stand apart in the source; their conditions may differ. Where two headings read alike, the source gives them in different places.

Key:
[1] = target: Purified bacterial β-glucuronidases (Escherichia coli, UniProt P05804); assay type: biochemical; conditions: PNPG substrate, 5 nM enzyme
Source text: Successful drug candidate compounds were subjected to numerous biochemical and cellular assays. Purified bacterial β-glucuronidases were challenged with compounds to determine inhibition properties in a standard, robust activity assay, utilizing p-nitrophenyl glucuronide (PNPG) as the enzymatic substrate.

E. coli GUS = E. coli GUS (Escherichia coli (strain K12), UniProt P05804); conditions: 30 minutes incubation, then NAD+ and UDH
Source text: Addition of UDH and nicotinamide adenine dinucleotide (NAD+) to a reaction solution containing free GA results in the catalysis of free GA to D-glucurate and the concomitant reduction of NAD+ to NADH. NADH can be detected photometrically by monitoring absorbance at 340 nm (FIG. 4).

[2] = system: β-glucuronidase activity in live, cultured bacterial cells; experiment: β-glucuronidase activity in live, cultured bacterial cells (PNPG substrate); assay type: cell-based; conditions: 2 hour incubation
[3] = system: GUS activity in live E. coli; experiment: PNPG-PNP GUS cleavage assay, live E. coli
purified E. coli GUS = purified E. coli GUS (Escherichia coli (strain K12), UniProt P05804); experiment: PNPG-PNP GUS cleavage assay, purified E. coli GUS; assay type: biochemical; conditions: preincubation one minute to four hours
[4] = parent compound, read-out: Cell Based Inhibition IC50 (nM) Parent

Sequence of E. coli GUS (P05804 whole entry, looked up): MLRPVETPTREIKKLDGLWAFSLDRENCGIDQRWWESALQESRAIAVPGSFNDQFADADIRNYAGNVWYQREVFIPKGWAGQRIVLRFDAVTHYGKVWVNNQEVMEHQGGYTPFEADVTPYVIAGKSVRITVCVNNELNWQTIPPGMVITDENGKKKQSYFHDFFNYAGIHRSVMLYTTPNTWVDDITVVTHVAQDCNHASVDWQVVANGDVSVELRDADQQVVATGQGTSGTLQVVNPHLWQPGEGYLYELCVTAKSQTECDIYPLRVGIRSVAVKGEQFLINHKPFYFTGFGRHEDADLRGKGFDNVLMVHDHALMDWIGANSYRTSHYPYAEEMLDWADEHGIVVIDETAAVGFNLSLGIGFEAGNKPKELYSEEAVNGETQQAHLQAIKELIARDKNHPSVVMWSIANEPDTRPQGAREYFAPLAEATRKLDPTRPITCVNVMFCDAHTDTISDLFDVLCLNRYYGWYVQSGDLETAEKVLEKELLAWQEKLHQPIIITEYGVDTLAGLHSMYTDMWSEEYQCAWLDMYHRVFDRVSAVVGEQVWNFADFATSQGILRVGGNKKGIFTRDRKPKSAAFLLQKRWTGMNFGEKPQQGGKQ
Sequence of purified E. coli GUS (P05804 whole entry, looked up): as above

## Cc1cc(C)c2[nH]c(=O)c(C(C)N(CCO)C(=O)Nc3ccccc3C)cc2c1 (stereo not shown) [Ref #31′, 1-[1-(6,8-dimethyl-2-oxo-1H-quinolin-3-yl)ethyl]-1-(2-hydroxyethyl)-3-(o-tolyl)urea]
[1]
  IC50: > 50000 nM

## chenodeoxycholate-glucuronide [reference compound]
E. coli GUS
  free GA / NADH formation after incubation with E. coli GUS (cleavage by GUS): detected only for the positive control

## Cc1cc(C)c2[nH]c(=O)c(CN(CCO)C(=O)Nc3cccnc3)cc2c1 [Ref #18′, 1-[(6,8-dimethyl-2-oxo-1H-quinolin-3-yl)methyl]-1-(2-hydroxyethyl)-3-(3-pyridyl)urea]
[1]
  IC50: > 50000 nM

## Cc1cc(C)c2[nH]c(=O)c(C(C)N(CCO)C(=O)Nc3ccc(F)cc3I)cc2c1 (stereo not shown) [Ref #30′, 1-[1-(6,8-dimethyl-2-oxo-1H-quinolin-3-yl)ethyl]-3-(4-fluoro-2-iodo-phenyl)-1-(2-hydroxyethyl)urea]
[1]
  IC50: 13000 nM

## CCOc1ccc(NC(=S)N(CCO)Cc2cc3cc(C)cc(C)c3[nH]c2=O)cc1 [Inh1, reference compound]
[2]; [4]
  IC50: 890 nM

## CCOc1ccc(NC(=S)N(CCO[C@@H]2O[C@H](C(=O)O)[C@@H](O)[C@H](O)[C@H]2O)Cc2cc3cc(C)cc(C)c3[nH]c2=O)cc1 [Inh1-G]
[3]; 1-min pre-incubation
  increase in potency in live E. coli: approximately 20 fold
[3]; 2-hr pre-incubation
  increase in potency in live E. coli: ~100 fold
[3]; 4-hr pre-incubation
  increase in potency in live E. coli: ~1000 fold and > 1000 fold
[3]; read-out: IC50 in live E. coli, after 4 hr incubation
  IC50: 1 nM
E. coli GUS
  free GA / NADH formation after incubation with E. coli GUS (cleavage by GUS): No free GA was detected; also recorded: does not cleave
Purified E. coli GUS
  IC50: ~1000 nM
[2]; glucuronide of the compound, read-out: Cell Based Inhibition IC50 (nM) Glucuronide
  IC50: 8.8 nM

## Cc1cc(C)c2[nH]c(=O)c(CN(CCO)C(=O)Nc3cccc(C(C)C)c3)cc2c1 [Ref #41′, 1-[(6,8-dimethyl-2-oxo-1H-quinolin-3-yl)methyl]-1-(2-hydroxyethyl)-3-(3-isopropylphenyl)urea]
[1]
  IC50: 6730 nM

## Cc1cccc(NC(=O)N(CCO)Cc2cc3cc(C)cc(C)c3[nH]c2=O)c1 [Ref #38′, 1-[(6,8-dimethyl-2-oxo-1H-quinolin-3-yl)methyl]-1-(2-hydroxyethyl)-3-(m-tolyl)urea]
[1]
  IC50: 1660 nM

## Cc1cc(C)c2[nH]c(=O)c(CN(CCO)C(=O)Nc3ccccc3-c3ccccc3)cc2c1 [Ref #14′, 1-[(6,8-dimethyl-2-oxo-1H-quinolin-3-yl)methyl]-1-(2-hydroxyethyl)-3-(2-phenylphenyl)urea]
[1]
  IC50: 6160 nM and 6440 nM

## Cc1cc(C)c2[nH]c(=O)c(C(C)N(CCO)C(=O)Nc3ccccc3C(C)C)cc2c1 (stereo not shown) [Ref #29′, 1-[1-(6,8-dimethyl-2-oxo-1H-quinolin-3-yl)ethyl]-1-(2-hydroxyethyl)-3-(2-isopropylphenyl)urea]
[1]
  IC50: 6440 nM

## COc1ccc(NC(=O)N(CCO)C(C)c2cc3cc(C)cc(C)c3[nH]c2=O)cc1 (stereo not shown) [Ref #34′, 1-[1-(6,8-dimethyl-2-oxo-1H-quinolin-3-yl)ethyl]-1-(2-hydroxyethyl)-3-(4-methoxyphenyl)urea]
[1]
  IC50: > 50000 nM

## CCOc1ccc(NC(=O)N(CCO)Cc2cc3cc(C)cc(C)c3[nH]c2=O)cc1
[2]; [4]
  IC50: 890 nM

## C#Cc1cc(F)ccc1NC(=O)N(CCO)Cc1cc2cc(C)cc(C)c2[nH]c1=O [Ref #45′, 1-[(6,8-dimethyl-2-oxo-1H-quinolin-3-yl)methyl]-3-(2-ethynyl-4-fluoro-phenyl)-1-(2-hydroxyethyl)urea]
[1]
  IC50: 1100 nM
